Holding throughout (assay): CXCR6 receptor antagonists, dose response, cell-based, beta-arrestin, DiscoveRx, APJ panel, uHTS hits (AID 624129)
The target in assay [1] is Apelin receptor (Homo sapiens) (UniProt P35414). The following applies: CXCR6 beta-arrestin (DiscoveRx) antagonist cell assay, APJ.
The target in assay [2] is Beta-galactosidase (Escherichia coli) (UniProt Q8VNN2). The following applies: CXCR6 beta-arrestin (DiscoveRx) antagonist cell assay, b-galactosidase.
In assay [3] the target is C-C chemokine receptor type 6 (Homo sapiens) (UniProt P51684). The conditions noted are these: CXCR6 beta-arrestin (DiscoveRx) antagonist cell assay.
Assay [4] deals with C-X-C chemokine receptor type 6 (Homo sapiens) (UniProt O00574). The conditions noted are these: CXCR6 beta-arrestin (DiscoveRx) antagonist cell assay; for inhibition: CXCR6, run 1, dose range 2, at 80 µM (top of the series).
The mark [5] stands for this setting: dose range 1, mean IC50 across replicates.
Setting [6] is: CCR6, dose range 1, mean IC50 across replicates.
Where [7] appears, read: CXCR6, dose range 1, mean IC50 across replicates.

A word on the IC50: it is the concentration that gives 50% inhibition. By inhibition is commonly meant the change of the read-out against control, counted positive when it falls.

The source made the active and inactive calls. How the calls were made is not given here.

Chain of Beta-galactosidase (Escherichia coli) (Q8VNN2 whole entry, looked up): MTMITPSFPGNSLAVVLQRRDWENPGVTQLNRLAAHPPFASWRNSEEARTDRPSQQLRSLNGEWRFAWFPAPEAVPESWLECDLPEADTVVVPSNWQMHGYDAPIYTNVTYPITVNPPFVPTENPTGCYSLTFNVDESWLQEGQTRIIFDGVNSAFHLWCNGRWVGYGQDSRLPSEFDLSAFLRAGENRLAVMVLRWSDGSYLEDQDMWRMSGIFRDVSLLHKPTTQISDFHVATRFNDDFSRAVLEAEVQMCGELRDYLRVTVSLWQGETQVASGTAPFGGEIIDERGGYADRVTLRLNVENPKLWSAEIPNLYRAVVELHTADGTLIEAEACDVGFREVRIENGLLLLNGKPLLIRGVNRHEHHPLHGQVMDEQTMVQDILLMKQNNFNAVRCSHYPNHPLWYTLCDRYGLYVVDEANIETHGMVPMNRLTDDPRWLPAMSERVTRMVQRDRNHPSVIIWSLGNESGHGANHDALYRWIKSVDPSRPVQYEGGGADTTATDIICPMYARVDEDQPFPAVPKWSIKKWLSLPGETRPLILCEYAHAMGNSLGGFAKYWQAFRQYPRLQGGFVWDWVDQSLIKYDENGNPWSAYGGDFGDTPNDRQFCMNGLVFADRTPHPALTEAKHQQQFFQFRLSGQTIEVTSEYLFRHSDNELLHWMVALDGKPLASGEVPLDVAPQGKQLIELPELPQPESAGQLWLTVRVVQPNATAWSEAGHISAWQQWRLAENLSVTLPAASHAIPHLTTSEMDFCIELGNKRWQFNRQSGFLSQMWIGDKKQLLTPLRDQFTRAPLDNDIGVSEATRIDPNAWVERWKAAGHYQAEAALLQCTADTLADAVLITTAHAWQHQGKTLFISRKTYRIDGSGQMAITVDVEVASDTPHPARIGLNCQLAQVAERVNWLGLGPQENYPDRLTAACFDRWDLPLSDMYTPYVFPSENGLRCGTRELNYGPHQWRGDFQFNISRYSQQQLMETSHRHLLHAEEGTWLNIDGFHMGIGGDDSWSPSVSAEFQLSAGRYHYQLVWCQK
Chain of C-X-C chemokine receptor type 6 (Homo sapiens) (O00574 whole entry, looked up): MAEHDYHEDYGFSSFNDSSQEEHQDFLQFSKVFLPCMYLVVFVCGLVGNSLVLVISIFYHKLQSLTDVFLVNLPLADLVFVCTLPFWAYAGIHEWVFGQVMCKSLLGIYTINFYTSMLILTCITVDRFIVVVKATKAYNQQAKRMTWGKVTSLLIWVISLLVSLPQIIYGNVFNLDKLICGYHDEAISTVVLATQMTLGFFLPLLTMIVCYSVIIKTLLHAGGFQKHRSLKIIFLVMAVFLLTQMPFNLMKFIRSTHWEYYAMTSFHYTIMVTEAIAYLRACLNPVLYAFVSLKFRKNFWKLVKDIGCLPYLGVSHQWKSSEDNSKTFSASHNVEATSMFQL

`COc1ccc(OC)c(/C=C/c2ccc3cccc(O)c3n2)c1`: the IC50 in assay [1] (dose range 1) is 6.47 µM; in assay [1] (setting [5]), 8.4 µM; in assay [1] (run 2, dose range 1), 10.3 µM; in assay [1] (run 3, dose range 1), 8.46 µM; in assay [2] (dose range 1), > 80 µM (inactive); in assay [2] (setting [5]), greater than 80 µM. Also, the IC50 is 3.73 µM in assay [3] (CCR6, dose range 1); 5.88 µM in assay [3] (setting [6]); 8.03 µM in assay [3] (CCR6, run 2, dose range 1); 4.15 µM in assay [4] (CXCR6, dose range 1); 5.39 µM in assay [4] (setting [7]); 5.17 µM in assay [4] (CXCR6, run 1, dose range 2). Also, the half-maximal inhibitory concentration (IC50) in assay [4] (CXCR6, run 2, dose range 1) stood at 5.26 µM; in assay [4] (CXCR6, run 2, dose range 2) it was 6.98 µM.
With `O=[N+]([O-])c1ccc(Sc2cccc[n+]2[O-])c2nonc12`, the IC50 is 21.5 µM in assay [1] (dose range 1); 19.7 µM in assay [1] (setting [5]); 17.5 µM in assay [1] (run 2, dose range 1); 20.1 µM in assay [1] (run 3, dose range 1); > 80 µM (inactive) in assay [2] (dose range 1); greater than 80 µM in assay [2] (setting [5]). The IC50 in assay [3] (CCR6, dose range 1) was 11.5 µM; in assay [3] (setting [6]) it was 11.5 µM; in assay [3] (CCR6, run 2, dose range 1) it was 11.6 µM; in assay [4] (CXCR6, dose range 1) it was > 80 µM (inactive); in assay [4] (setting [7]), greater than 80 µM; in assay [4] (CXCR6, run 2, dose range 1) it was greater than 80 µM. Besides, the inhibition in assay [4] worked out at 118%.
Turning to `CC(=O)OCCCNc1cc(Sc2ccc(C)cc2)c2nonc2c1[N+](=O)[O-]`, the IC50 in assay [1] (setting [5]) was greater than 80 µM; in assay [1] (run 2, dose range 1) it was greater than 80 µM; in assay [1] (run 3, dose range 1), greater than 80 µM; in assay [2] (dose range 1), > 80 µM (inactive); in assay [2] (setting [5]) it was greater than 80 µM; in assay [3] (setting [6]) it was greater than 80 µM. Further, the IC50 in assay [3] (CCR6, run 2, dose range 1) was greater than 80 µM; in assay [4] (CXCR6, dose range 1) it was > 80 µM (inactive); in assay [4] (setting [7]), greater than 80 µM; in assay [4] (CXCR6, run 2, dose range 1), greater than 80 µM. Further, the inhibition in assay [4] was -24.2%.
Regarding `O=Cc1s/c(=N\S(=O)(=O)c2ccccc2)n(CCCCl)c1Cl`, the IC50 in assay [1] (dose range 1) is 6.78 µM; in assay [1] (setting [5]) it was 6.28 µM; in assay [1] (run 2, dose range 1) it was 5.42 µM; in assay [1] (run 3, dose range 1) it was 6.63 µM; in assay [2] (dose range 1), 15.9 µM; in assay [2] (setting [5]), 15.9 µM. Also, the IC50 in assay [3] (CCR6, dose range 1) was 2.79 µM; in assay [3] (setting [6]), 3.11 µM; in assay [3] (CCR6, run 2, dose range 1), 3.43 µM; in assay [4] (CXCR6, dose range 1), 4.95 µM; in assay [4] (setting [7]), 4.83 µM; in assay [4] (CXCR6, run 1, dose range 2), 5.13 µM. For the same molecule, the IC50 came out at 4.89 µM in assay [4] (CXCR6, run 2, dose range 1) and 4.35 µM in assay [4] (CXCR6, run 2, dose range 2).
In the case of `O=[N+]([O-])c1c(Nc2ccccc2O)cc(Cl)c2nonc12`, the IC50 is 20 µM in assay [1] (dose range 1); 23.2 µM in assay [1] (setting [5]); 24.4 µM in assay [1] (run 2, dose range 1); 25.2 µM in assay [1] (run 3, dose range 1); > 80 µM (inactive) in assay [2] (dose range 1); greater than 80 µM in assay [2] (setting [5]). Besides, the IC50 was 11.8 µM in assay [3] (CCR6, dose range 1); 12.6 µM in assay [3] (setting [6]); 13.4 µM in assay [3] (CCR6, run 2, dose range 1); 13 µM in assay [4] (setting [7]); 9.03 µM in assay [4] (CXCR6, run 2, dose range 1). For the same molecule, in assay [4] (CXCR6, dose range 1), the IC50 result is “inactive”. Besides, in assay [4], the inhibition came out at 123%.
As for `C=CS(=O)(=O)c1c2cc(OC)ccc2nc2ccc(OC)cc12`, the IC50 in assay [1] (dose range 1) was 17 µM; in assay [1] (setting [5]), 18.7 µM; in assay [1] (run 2, dose range 1) it was 18.8 µM; in assay [1] (run 3, dose range 1), 20.2 µM; in assay [2] (dose range 1) it was > 80 µM (inactive); in assay [2] (setting [5]), greater than 80 µM. The IC50 in assay [3] (CCR6, dose range 1) was 10.8 µM; in assay [3] (setting [6]) it was 11.7 µM; in assay [3] (CCR6, run 2, dose range 1) it was 12.5 µM; in assay [4] (setting [7]), 12.5 µM; in assay [4] (CXCR6, run 2, dose range 1), 10.1 µM. In assay [4] (CXCR6, dose range 1), the IC50 entry was “inactive”. Besides, the inhibition in assay [4] came to 117%.
For the molecule `C=C(CN(C)C)C(=O)c1ccc(OC2OC(COC(C)=O)C(OC(C)=O)C(OC(C)=O)C2OC(C)=O)cc1` (stereo not given), the IC50 in assay [1] (dose range 1) was 38.4 µM; in assay [1] (setting [5]) it was 38.9 µM; in assay [1] (run 2, dose range 1), 37.8 µM; in assay [1] (run 3, dose range 1), 40.5 µM; in assay [2] (dose range 1), > 80 µM (inactive); in assay [2] (setting [5]), greater than 80 µM. Further, the IC50 is 24.5 µM in assay [3] (CCR6, dose range 1); 23.2 µM in assay [3] (setting [6]); 21.9 µM in assay [3] (CCR6, run 2, dose range 1); 22.3 µM in assay [4] (setting [7]); 20.9 µM in assay [4] (CXCR6, run 2, dose range 1). Also, the IC50 result in assay [4] (CXCR6, dose range 1) was “inactive”. For the same molecule, the inhibition in assay [4] was 135%.
With `C=C1C(=O)c2sccc2C(c2ccc(OC)c(OC)c2)C1COC(C)=O` (stereo not given), the IC50 in assay [1] (dose range 1) was 7.28 µM; in assay [1] (setting [5]), 6.69 µM; in assay [1] (run 2, dose range 1) it was 6.03 µM; in assay [1] (run 3, dose range 1), 6.75 µM; in assay [2] (dose range 1), > 80 µM (inactive); in assay [2] (setting [5]) it was greater than 80 µM. The IC50 in assay [3] (CCR6, dose range 1) was 4.58 µM; in assay [3] (setting [6]), 5.3 µM; in assay [3] (CCR6, run 2, dose range 1) it was 6.02 µM; in assay [4] (CXCR6, dose range 1) it was 6.54 µM; in assay [4] (setting [7]) it was 6.19 µM; in assay [4] (CXCR6, run 1, dose range 2), 5.73 µM. The IC50 in assay [4] (CXCR6, run 2, dose range 1) was 6.78 µM; in assay [4] (CXCR6, run 2, dose range 2), 5.7 µM.

Source of the values: PubChem BioAssay AID624129 (Sanford-Burnham Center for Chemical Genomics, 2012).
